Marks after values point to notes of the source that are not given here.
What was measured:
Format in all cases: cell-based
[1] = test system: HIV-1 HXB2 mutants with site-directed mutations in RT; assay: Recombinant virus assay, drug susceptibility of mutants with site-directed RT mutations (Example 1); details: for Fold resistance: standard error in parentheses
Experimental: Plasma samples were obtained from HIV-1-infected individuals from routine clinical practice in Europe and the US and were shipped to the laboratory on dry ice and stored at −70° C. until analysis. Phenotypic analysis was performed using the recombinant virus assay. See Kellam, P., and B. A. Larder. Antimicrob. Agents Chemother. 38:23-30 (1994); Hertogs, K., et al., Antimicrob. Agents Chemother. 42:269-276 (1998); Briefly, protease (PR) and reverse transcriptase (RT) coding sequences were amplified from patient-derived viral RNA with HIV-1 specific primers. After homologous recombination of amplicons into a PR-RT deleted proviral clone, the resulting recombinant viruses were harvested, titrated and used for in vitro susceptibility testing to antiretroviral drugs.
For the modeling studies, mutations were generated in the RT gene of HXB2, a wild-type laboratory HIV-1 strain, using the QuikChange^J Site-Directed Mutagenesis Kit, […]^7, Stratagene Cloning systems, La Jolla, Calif., USA.

[2] = test system: patient-derived recombinant HIV-1 variants (protease/RT from patient plasma); assay: Recombinant virus assay (ANTIVIROGRAM), MT-4 cell viral cytopathic effect (CPE) protection assay, patient-derived recombinant viruses (Example 2); details: for level of resistance: samples with AZT and 3TC resistance mutations plus T69A/N or V175M
Experimental: FIG. 1: Nucleoside analogue susceptibility of MDIR patient-derived recombinant HIV variants. Recombinant viruses were produced from patient plasma samples as described in Example 2 and tested for susceptibility to (a) d4T, (b) ddC and (c) ddl. […] Error bars indicate standard errors. Note that the total number (n=310) is higher than the 302 MDR samples described because a small minority were 69D/N and 75M double mutants and are represented in both groups.
Viral RNA was extracted from 200 μL patient plasma using the QIAAMPV® Viral RNA Extraction Kit (Qiagen, Hilden, Germany), according to the manufacturers instructions. cDNA encompassing part of the pol gene was produced using EXPAND™ reverse transcriptase (Boehringer Mannheim) as described previously. See Hertogs K., et al., Antimicrob. Agents Chemother. 42:269-276 (1998). A 2.2 kb fragment encoding the protease and RT regions was then amplified by nested polymerase chain reaction (PCR) using PCR primers and conditions as described. Id. This genetic material was subsequently used in both phenotyping and genotyping experiments.
MT-4 cells (Harada S., et al, Science 229:563-566(1985).) were co-transfected with pol gene PCR fragments and the protease-RT deleted HIV-1 molecular clone, pGEM3deltaPRT, as described. See Hertogs K., et al., Antimicrob. Agents Chemother. 42:269-276 (1998). […] Phenotypic susceptibility to nucleoside analogues was determined using an MT-4 cell viral cytopathic effect (CPE) protection assay as described. Id. Fold resistance values were derived by dividing the mean IC50 for a patient's recombinant virus by the mean IC50 for wild-type control virus (strain HXB2-D). The PCR products obtained from patient plasma samples were genotyped by dideoxynucleotide-based sequence analysis. Samples were sequenced using the BIGDYE™ terminator kit (Applied Biosystems, Inc. (ABI)) and resolved on an ABI 377 DNA sequencer.
From this analysis, 302 samples were identified with four-fold or greater increases in IC50 (relative to a wild-type control virus) to at least four of these inhibitors. […]

[3] = test system: HIV-1 HXB2-D variants with site-directed RT mutations; assay: MT-4 cell CPE protection assay, HIV-1 variants constructed by site-directed mutagenesis (Example 2); details: for susceptibility: 69S-[S-S] insert plus AZT resistance mutations (210W and 215Y); for resistance: T69A or V75M in a background of AZT mutations
Experimental: Mutations in the RT coding region were created by site-directed mutagenesis of a wild-type HXB2-D EcoRl-Pstl restriction enzyme fragment, encompassing the HIV-1 pol gene and cloned into pGEM3 (Promega). Single and multiple nucleotide changes were introduced into RT using the EXSITE™ mutagenesis kit (Strategene). All mutant clones were verified by DNA sequence analysis of the entire RT. PCR fragments were prepared from the mutated clones and the altered RT coding regions were transferred into the HIV-1 HXB2-D genetic background by homologous recombination as described above. The susceptibility of these recombinant viruses to nucleoside analogues was subsequently determined by the MT-4 cell CPE protection assay. Id.

Nc1ccn([C@@H]2CS[C@H](CO)O2)c(=O)n1 [3TC, lamivudine]
Fold resistance ([1]; SDM05: 41L, 210W, 211K, 214F, 215Y): 4 (0.3)^c fold
Fold resistance ([1]; SDM18: 41L, 67N, 210W, 211K, 214F, 215Y): 2 (0.6) fold
Fold resistance ([1]; SDM19: 41L, 67N, 69D, 210W, 211K, 214F, 215Y): 4 (0.7) fold
Fold resistance ([1]; SDM22: 184V, 41L, 210W, 211K, 214F, 215Y): 78 (16.3) fold
Fold resistance ([1]; SDM23: 184V): 82 (13.6) fold
Fold resistance ([1]; SDM24: 184V, 69S-S-S, 210W, 211K, 214D, 215Y): 85 (14.2) fold
Fold resistance ([1]; SDM26: 184V, 41L, 67N, 210W, 211K, 214F, 215Y): 72 (13.8) fold
Fold resistance ([1]; SDM28: 44D): 1 (0.1) fold
Fold resistance ([1]; SDM29: 1181): 2 (0.2) fold
Fold resistance ([1]; SDM30: 44D, 1181): 3 (0.3) fold
Fold resistance ([1]; SDM31: 44D, 41L, 67N, 210W, 211K, 214F, 215Y): 22 (2.5) fold
Fold resistance ([1]; SDM32: 44D, 41L, 67N, 69D, 210W, 211K, 214F, 215Y): 8 (2.2) fold
Fold resistance ([1]; SDM33: 1181, 41L, 67N, 210W, 211K, 214F, 215Y): 7 (1.0) fold
Fold resistance ([1]; SDM34: 1181, 41L, 67N, 69D, 210W, 211K, 214F, 215Y): 32 (3.9) fold
Fold resistance ([1]; SDM35: 44D, 1181, 41L, 67N, 210W, 211K, 214F, 215Y): 14 (1.4) fold
Fold resistance ([1]; SDM36: 44D, 1181, 41L, 67N, 69D, 210W, 211K, 214D, 215Y): 15 (2.1) fold
Fold resistance ([1]; SDM38: 184V, 44D, 1181, 41L, 67N, 210W, 211K, 214F, 215Y): 82 (13.5) fold
Fold resistance ([1]; SDM39: 184V, 44D, 1181, 41L, 67N, 69D, 210W, 211K, 214F, 215Y): 84 (13.9) fold
high resistance ([1]; caused by mutation 184V): > 62 fold
mean fold increase in IC50 ([2]; all four MDR groups (151 cluster, 69D/N, 75M, codon 69 insertions)): > 30 fold

Nc1ccn([C@H]2CC[C@@H](CO)O2)c(=O)n1 [ddC, zalcitabine]
susceptibility [3]: decreased susceptibility
resistance [3]: little or no resistance
level of resistance [2]: only modest levels of resistance

Cc1cn([C@H]2C=C[C@@H](CO)O2)c(=O)[nH]c1=O [d4T, stavudine]
susceptibility [3]: decreased susceptibility
resistance [3]: little or no resistance
level of resistance [2]: only modest levels of resistance

Source: patent US8574831B2, “Mutational profiles in HIV-1 reverse transcriptase correlated with phenotypic drug resistance” (Virco N.V., priority 2000, dated 2013)
